The Kd is the free concentration of one partner at which half of the binding sites on the other are occupied at equilibrium, for simple one-to-one binding.

In publication PMC12265714 (bioRxiv, 2025) one finds Kd data, which are given here for two compounds.

In this assay the target is T1, ComFB (FB; Bsu FB) (Bacillus subtilis, UniProt P39146).
T1 sequence (P39146 1-98): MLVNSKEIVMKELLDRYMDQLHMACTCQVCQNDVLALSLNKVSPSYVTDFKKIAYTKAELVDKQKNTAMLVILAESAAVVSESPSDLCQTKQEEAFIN
The experiment in a line: isothermal titration calorimetry, one-site model. It counts as binding. Background: In ITC the heat of successive injections is recorded.

In the case of `Nc1ncnc2c1ncn2[C@@H]1O[C@@H]2COP(=O)(O)O[C@H]3[C@@H](O)[C@H](n4cnc5c(N)ncnc54)O[C@@H]3COP(=O)(O)O[C@H]2[C@H]1O` [c-di-AMP], the dissociation constant Kd is 69.1 ± 139 µM.

Compound `Nc1nc2c(ncn2[C@@H]2O[C@@H]3CO[P@](=O)(O)O[C@H]4[C@@H](O)[C@H](n5cnc6c(=O)[nH]c(N)nc65)O[C@@H]4CO[P@](=O)(O)O[C@H]3[C@H]2O)c(=O)[nH]1` [c-di-GMP] showed a Kd of 0.14 ± 0.05 µM.
